Test results from US8466259B2, “Adjuvants” (National Health Research Institutes, priority 2007, dated 2013).

Columns and labels:
[1] = biological target: T1, TLR2 (Homo sapiens, UniProt O60603); test: NF-kB luciferase reporter assay in TLR2-transfected HEK293 cells; type: cell-based
T1 construct: FLAG; host or cells: HEK293
Method: HEK293 cells were plated onto 24-well plates (2×10^5 cells/well) and cotransfected with 0.1 μg of pFLAG-TLR2, 0.01 μg of pNF-kB-luc, and 0.01 μg of the pRL-TK internal control plasmid (Promega, Madison, Wis.) using lipofectamine 2000 (Invitrogen, Carlsbad, Calif.). After 24 h, the transfected cells were stimulated with various synthetic lipopeptide or recombinant proteins for 24 h. The cells were lysed so that the luciferase activity could be measured using a dual-luciferase reporter assay system (Promega Co., Madison, Wis.). Firefly-luciferase activities were related to Renilla-luciferase activities for the purposes of normalization. Both firefly and Renilla luciferase activities were monitored using a Berthold Orion II luminometer (Pforzheim, Germany).

[2] = tested on: bone marrow-derived dendritic cells; test: lipo-Nter stimulation of BM-DCs, cytokine ELISA (Example 4); type: cell-based, mouse; conditions: lipo-Nter 100 nM
Method: BM-DCs were harvested as previously described (Lutz et al., 1999). Briefly, femurs and tibiae of 6-8 week old female mice were removed, and the bone marrow cells were dispersed by vigorous pipetting. After removing red blood cells with lysis buffer, the isolated bone marrow cells were resuspended to a density of 2−5×10^5/ml cells with RPMI-10: RPMI-1640 (GIBCO BRL, Grand Island, N.Y.) supplemented with 10% P/S, L-glutamine (2 mM, Sigma), 2-mercaptoethanol (50 μM, Sigma), and 10% heat-inactivated FBS. On days 0, 3, and 6, bone marrow cells were added to Petri dishes containing 200 U/mL (20 ng/ml) of recombinant mouse granulocyte macrophage colony stimulating factor (MoGM-CSF, Peprotech, Rocky Hill, N.J.) in RPMI-10. At day 6, either LPS (0.01 μg/ml), lipo-Nter (100 nM) was added. Generally, immature dendritic cells made up 70% of the total cell population. The production of cytokines by BM-DCs was determined using ELISA. Briefly, 100 μL of anti-cytokine (10 μg/ml of IL-12p40, TNF-α) antibodies (R&D system Inc. Minneapolis, Minn.) were coated onto 96-well microtiter plates with 0.1 M carbonate buffer, pH 9.6, following overnight incubation at 4° C. […] The plates were read at 450 nm using an ELISA plate reader (Molecular Devices, CA). The production levels of the cytokines were calculated by subtracting the values obtained for non-stimulated groups.

[3] = tested on: rE7m; test: Anti-E7m IgG ELISA after immunization of mice with rE7m with or without lipo-Nter (Example 5); type: in vivo, mouse; conditions: subcutaneous, combined with 20 μg rE7m, two immunizations at two-week intervals
Method: Five mice (6-8 weeks old) were immunized subcutaneously with 20 μg of rE7m with or without lipo-Nter. The mice were given two immunizations at two-week intervals. Blood was collected from each mouse at different time points as indicated. Sera were prepared and stored at −80° C. until use. The level of anti-E7m IgG in the serum samples was determined by titrating the samples in 96-well plates coated with purified rE7m. Bound IgG was detected with horseradish peroxidase-conjugated goat anti-mouse IgG Fc. After the addition of TMB, the absorbance was measured with an ELISA reader at 450 nm.

[4] = tested on: TC-1 cells (expressed HPVE7 cells); test: TC-1 tumor growth inhibition, rE7m with or without lipo-Nter (Example 6); type: in vivo, mouse; conditions: mice with TC-1 tumors, immunized once subcutaneously at day 7, combined with 20 μg rE7m
Method: In this example, assays were conducted to examiner whether the lipo-Nter combined with rE7m can increase the tumor growth inhibition ability. Six mice (6-8 weeks old) were inoculated with 2×10^5 TC-1 cells (expressed HPVE7 cells) at day 0. After 7 days, mice were immunized once subcutaneously with 20 μg of rE7m with or without lipo-Nter. The tumor size was monitored every 2-3 days until tumor volumes higher than 3000 mm^3. The tumor volumes were calculated based on the formula length×width×width/2.

[5] = tested on: TC-1 cells (expressed HPVE7 cells); test: TC-1 tumor growth inhibition, E7-derived peptide RAH with Pam3 or lipo-Nter (Example 7); type: in vivo, mouse; conditions: mice with TC-1 tumors, immunized once subcutaneously at day 7, combined with 20 μg E7-derived peptide RAH
Method: Six mice (6-8 weeks old) were inoculated with 2×10^5 TC-1 cells (expressed HPVE7 cells) at day 0. After 7 days, mice were immunized once subcutaneously with 20 μg of E7-derived peptide in the presence of tripamitoylated peptide Pam3 or lipo-Nter. The tumor size was monitored every 2-3 days until tumor volumes higher than 3000 mm^3. The tumor volumes were calculated based on the formula length×width×width/2.

[6] = tested on: p38, ERK1/2 and JNK1/2 in BM-DCs; test: Western blot analysis of p38, ERK1/2, JNK1/2 phosphorylation in BM-DCs; type: cell-based, mouse; conditions: 100 nM
Method: The BM-DCs were grown in DMEM or RPMI medium without FBS for 16-18 h and then stimulated with 100 nM of the indicated lipopeptides or lipoprotein for 10, 20, 40, 60, 90, or 120 minutes at 37° C. These treated BM-DCs were then lysed in 25 mM HEPES, 150 mM NaCl, 1 mM EDTA, 1 mM EGTA, 10% glycerol, 1% Triton X-100, 10 mM sodium pyrophosphate, 20 mM b-glycerophosphate, Na3VO4, 10 mM NaF, […], and 1 mM PMSF. The concentration of the protein lysates was determined using the BCA protein assay kit (Pierce, Rockford, Ill.). Fifty microgram of lysates were electrophoresed per lane of a 10% SDS-PAGE gel. After the resolved lysates in the gel were transferred to a PVDF membrane, the membranes were blocked with 5% milk and 0.05% Tween-20. The membranes were incubated with antibodies against p38, pp38, pERK1/2, or pJNK1/2 in 5% w/v BSA, 1×PBS and 0.1% Tween-20. Anti-p38 antibody was used as a control for the protein loading level in each lane. The membrane was developed using the LumiGLO® Chemiluminescent Substrate system (Millipore, Billerica, Mass.). The total p38 level was used for normalization, and the induction of pp38 was determined using image analysis software (Image J1.41, NIH, Bethesda, Md.). Relative phosphorylation was calculated as the (density of pp38/density of p38)×100.

[7] = tested on: BM-DCs; test: Real-time quantitative PCR of cytokine/chemokine gene expression in BM-DCs; type: cell-based, mouse; conditions: 100 nM, 2 or 4 hours
Method: The BM-DCs were purified using the Dynabeads® Mouse DC Enrichment Kit (Invitrogen Dynal AS, Oslo, Norway) according to the manufacturer's instructions to 60 90%. The purified BM-DCs were stimulated using medium alone, or with 100 nM of Pam3, BPPcysPEG or rlipo-D1E3, at 37° C. for 2 or 4 hours. Total RNA was extracted from the isolated cells using the RNeasy mini kit (Qiagen, Valencia, Calif.) following the manufacturer's instructions. RNA (0.5-1 μg) was reverse-transcribed to cDNA using an oligo-dT primer in a 20 μl volume and SuperScript III RT (Invitrogen, Carlsbad, Calif.). The mouse Universal Probe Library (UPL) set (Roche, Mannheim, Germany) was used to perform the real-time qPCR assay for gene expression in isolated cell populations (Liu et al. (2007) J Leukoc Biol 82, 354-360.).
The reaction mixture contained 5 ng cDNA, 0.2 μM primers, and LightCycler 480 Probe Master (Roche), and the reagents were reacted in a LightCycler 480 system (Roche). All qPCRs were carried out using an initial denaturation step at 95° C. for 10 min, followed by 45 cycles of 95° C. for 10 s, 60° C. for 20 s, and 72° C. for 2 s. Target gene expression was normalization to HPRT gene expression. The relative gene expression levels were calculated by comparing the expression levels after treatment with various stimulators to those obtained using medium alone. […]

T1 sequence (O60603 21-784): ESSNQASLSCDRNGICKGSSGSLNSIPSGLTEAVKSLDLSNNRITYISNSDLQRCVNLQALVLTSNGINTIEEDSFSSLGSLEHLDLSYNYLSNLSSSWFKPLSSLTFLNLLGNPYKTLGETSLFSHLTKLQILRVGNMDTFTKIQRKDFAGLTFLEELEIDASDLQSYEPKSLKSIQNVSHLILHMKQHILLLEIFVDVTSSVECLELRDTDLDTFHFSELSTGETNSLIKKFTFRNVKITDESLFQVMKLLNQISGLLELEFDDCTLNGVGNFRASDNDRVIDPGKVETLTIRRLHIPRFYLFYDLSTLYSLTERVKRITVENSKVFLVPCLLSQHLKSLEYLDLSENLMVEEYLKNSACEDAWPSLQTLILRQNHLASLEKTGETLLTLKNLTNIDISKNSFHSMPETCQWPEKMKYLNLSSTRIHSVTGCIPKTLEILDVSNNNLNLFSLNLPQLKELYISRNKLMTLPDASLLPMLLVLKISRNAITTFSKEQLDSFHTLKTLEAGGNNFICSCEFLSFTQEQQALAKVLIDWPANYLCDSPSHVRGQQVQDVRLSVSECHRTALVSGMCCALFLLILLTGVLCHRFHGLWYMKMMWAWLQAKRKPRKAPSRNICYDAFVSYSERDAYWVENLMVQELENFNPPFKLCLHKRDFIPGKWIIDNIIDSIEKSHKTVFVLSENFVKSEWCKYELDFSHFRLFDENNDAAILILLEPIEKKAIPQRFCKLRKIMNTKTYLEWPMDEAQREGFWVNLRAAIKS

For “N-acyl-S-diacylglyceryl-CSQEAK [lipo-Nter]”, the “activation of NF-κB signaling through TLR2” value ([1]; purified lipo-Nter) was “activate NF-κB signaling through TLR2”, the “secretion of TNF-α and IL-12p40” value [2] was “stimulated bone marrow-derived dendritic cells to secrete TNF-α and IL-12p40” and the “anti-E7 antibody (anti-E7m IgG in serum)” value [3] was “enhanced anti-E7 antibody”. For the same substance, the “anti-tumor activity (tumor volume)” value [4] was “anti-tumor activity stronger than that of rE7m alone” and the “tumor growth inhibition (tumor volume)” value [5] was “could inhibit tumor growth”.

For “S-[2,3-bispalmitoyloxy-[2R]-propyl-[R]-cysteinyl-amido polyethyleneglycol [BPPcysPEG]”, the NF-κB signaling activities ([1]; at 0.1 or 1 nM concentration, compared among Pam3, rlipo-D1E3 and BPPcysPEG) was “highest NF-κB signaling activities”, the “dose response of TLR2-dependent NF-κB activation” value ([1]; range from 1 μM to 100 nM) was “stronger activation of TLR2” and the “time after which phosphorylation dropped down to basal levels” value [6] was 60 min. For the same substance, the “level of the phosphorylation of p38, ERK1/2, JNK1/2” value ([6]; compared with Pam3 and rlipo-D1E3) was “higher level”, the “time of highest induced level of phosphorylation of p38, ERK1/2 and JNK1/2” value ([6]; measured 0-120 min) was 10 min and the “IL-10, TGFβ and CXCL1 expression levels” value ([7]; compared among Pam3, BPPcysPEG and rlipo-D1E3) was “similar”. For the same substance, the “expression levels of IL-13” value ([7]; compared to Pam3) was “higher expression levels”.
